Results taken from patent publication US10479780B2, “Aminopyrazole derivatives” (Chugai Seiyaku Kabushiki Kaisha, priority 2015, dated 2019).

Assays:
Assay type in all cases: biochemical
[1] = target: T1, human Lck enzyme (Homo sapiens, UniProt P06239); assay: Lck enzyme inhibitory activity (time-resolved fluorometry, biotinylated peptide phosphorylation); details: biotinylated peptide phosphorylation, read-out: LCK_IC50
T1 construct: purchased Carna Biosciences, Inc. 08-170
Outline: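 Readout pairs a europium cryptate-labelled anti-phosphotyrosine antibody with XL665-streptavidin, measured by time-resolved fluorescence. IC50 derived from percent inhibition against untreated controls.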

[2] = target: T2, human Yes1 enzyme (Homo sapiens, UniProt P07947); assay: Yes1 enzyme inhibitory activity (time-resolved fluorometry, biotinylated peptide phosphorylation); details: biotinylated peptide phosphorylation, read-out: YES_IC50
T2 construct: made in house
T2 sequence (P07947 whole entry): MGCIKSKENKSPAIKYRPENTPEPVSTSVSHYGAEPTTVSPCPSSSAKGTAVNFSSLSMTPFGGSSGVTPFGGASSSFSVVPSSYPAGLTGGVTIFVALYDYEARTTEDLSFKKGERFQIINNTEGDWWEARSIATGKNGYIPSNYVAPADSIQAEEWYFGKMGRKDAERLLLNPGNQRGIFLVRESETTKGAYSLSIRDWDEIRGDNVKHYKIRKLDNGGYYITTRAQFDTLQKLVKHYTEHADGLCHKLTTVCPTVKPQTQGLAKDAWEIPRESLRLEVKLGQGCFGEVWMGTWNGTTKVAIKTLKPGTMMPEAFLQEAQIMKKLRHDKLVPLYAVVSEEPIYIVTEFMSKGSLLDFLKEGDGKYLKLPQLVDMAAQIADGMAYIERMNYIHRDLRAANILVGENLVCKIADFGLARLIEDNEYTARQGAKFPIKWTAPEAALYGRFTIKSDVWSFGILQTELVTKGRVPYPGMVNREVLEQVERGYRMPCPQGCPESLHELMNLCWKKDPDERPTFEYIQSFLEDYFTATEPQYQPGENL
Outline: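 Inhibition was expressed against a compound-free control to give IC50, using TR-FRET read-out (Eu-cryptate anti-pTyr antibody, streptavidin-XL665).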

[3] = target: T3, human Src enzyme (Homo sapiens, UniProt P12931); assay: Src enzyme inhibitory activity (time-resolved fluorometry, biotinylated peptide phosphorylation); details: biotinylated peptide phosphorylation, read-out: SRC_IC50
T3 construct: purchased Carna Biosciences, Inc. 08-173
T3 sequence (P12931 whole entry): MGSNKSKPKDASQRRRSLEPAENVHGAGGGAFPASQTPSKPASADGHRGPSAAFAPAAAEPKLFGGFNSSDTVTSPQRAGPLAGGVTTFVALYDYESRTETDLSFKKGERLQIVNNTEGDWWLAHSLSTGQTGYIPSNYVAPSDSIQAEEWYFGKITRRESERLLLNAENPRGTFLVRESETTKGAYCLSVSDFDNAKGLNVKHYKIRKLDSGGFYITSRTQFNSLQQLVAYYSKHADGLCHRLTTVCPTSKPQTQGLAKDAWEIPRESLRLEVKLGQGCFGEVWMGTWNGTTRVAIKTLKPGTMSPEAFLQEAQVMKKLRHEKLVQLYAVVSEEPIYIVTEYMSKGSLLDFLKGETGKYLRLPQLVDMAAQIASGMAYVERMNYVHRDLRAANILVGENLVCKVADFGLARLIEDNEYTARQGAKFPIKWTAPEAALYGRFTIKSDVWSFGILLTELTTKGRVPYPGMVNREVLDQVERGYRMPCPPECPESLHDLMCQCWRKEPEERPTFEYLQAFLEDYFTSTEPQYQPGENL
Outline: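 Compounds were tested for blocking tyrosine phosphorylation of a biotinylated peptide substrate by recombinant human Src. Phosphorylated product was quantified by time-resolved fluorometry using europium cryptate and XL665 conjugates, and IC50 was calculated against the compound-free control.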

T1 sequence (P06239 whole entry): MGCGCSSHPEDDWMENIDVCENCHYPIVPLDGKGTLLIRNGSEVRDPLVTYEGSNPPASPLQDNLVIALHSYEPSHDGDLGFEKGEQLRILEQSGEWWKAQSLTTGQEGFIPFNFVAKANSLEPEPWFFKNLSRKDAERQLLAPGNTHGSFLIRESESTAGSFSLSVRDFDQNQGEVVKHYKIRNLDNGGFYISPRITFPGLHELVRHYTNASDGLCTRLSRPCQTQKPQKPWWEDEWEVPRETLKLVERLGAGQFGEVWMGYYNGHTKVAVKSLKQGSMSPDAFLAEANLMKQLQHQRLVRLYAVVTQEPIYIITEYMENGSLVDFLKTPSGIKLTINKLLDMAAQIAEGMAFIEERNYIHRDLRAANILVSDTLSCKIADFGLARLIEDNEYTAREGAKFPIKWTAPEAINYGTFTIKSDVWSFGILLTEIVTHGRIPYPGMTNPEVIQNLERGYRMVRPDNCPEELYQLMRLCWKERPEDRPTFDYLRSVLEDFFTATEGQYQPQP

| IC50 [1] [nM] | IC50 [2] [nM] | IC50 [3] [nM] | SMILES |
| --- | --- | --- | --- |
| 11 | 0.67 | 29 | Cc1cc(Oc2ccccc2F)ccc1-n1ncc(C(=O)c2cc3cc(F)c(NS(=O)(=O)NC4CCOCC4)cc3[nH]2)c1N [Example 4-5-003, [5-amino-1-[4-(2-fluorophenoxy)-2-methylphenyl]pyrazol-4-yl]-[5-fluoro-6-(oxan-4-ylsulfamoylamino)-1H-indol-2-yl]methanone] |
| 41 | 3.3 | 65 | Cc1cc(Oc2ccccc2F)ccc1-n1ncc(C(=O)c2cc3cc(F)c(NS(=O)(=O)NC(C)C)cc3[nH]2)c1N [Example 4-5-004, [5-amino-1-[4-(2-fluorophenoxy)-2-methylphenyl]pyrazol-4-yl]-[5-fluoro-6-(propan-2-ylsulfamoylamino)-1H-indol-2-yl]methanone] |
| 11 | 0.51 | 29 | Cc1cc(Oc2ccccc2F)ccc1-n1ncc(C(=O)c2cc3cc(F)c(NS(=O)(=O)NC4COC4)cc3[nH]2)c1N [Example 4-5-005, [5-amino-1-[4-(2-fluorophenoxy)-2-methylphenyl]pyrazol-4-yl]-[5-fluoro-6-(oxetan-3-ylsulfamoylamino)-1H-indol-2-yl]methanone] |
| 62 | 6.8 | 140 | Cc1cc(Oc2ccccc2F)ccc1-n1ncc(C(=O)c2cc3cc(F)c(NS(=O)(=O)NC4CCC4)cc3[nH]2)c1N [Example 4-5-006, [5-amino-1-[4-(2-fluorophenoxy)-2-methylphenyl]pyrazol-4-yl]-[6-(cyclobutylsulfamoylamino)-5-fluoro-1H-indol-2-yl]methanone] |
| 18 | 0.5 | 33 | COCCNS(=O)(=O)Nc1cc2[nH]c(C(=O)c3cnn(-c4ccc(Oc5ccccc5F)cc4C)c3N)cc2cc1F [Example 4-5-007, [5-amino-1-[4-(2-fluorophenoxy)-2-methylphenyl]pyrazol-4-yl]-[5-fluoro-6-(2-methoxyethylsulfamoylamino)-1H-indol-2-yl]methanone] |
| 8.2 | 0.55 | 31 | Cc1cc(Oc2ccccc2F)ccc1-n1ncc(C(=O)c2cc3cc(F)c(NS(=O)(=O)NC4(C)COC4)cc3[nH]2)c1N [Example 4-5-008, [5-amino-1-[4-(2-fluorophenoxy)-2-methylphenyl]pyrazol-4-yl]-[5-fluoro-6-[(3-methyloxetan-3-yl)sulfamoylamino]-1H-indol-2-yl]methanone] |
| 12 | 0.68 | 35 | CONS(=O)(=O)Nc1cc2[nH]c(C(=O)c3cnn(-c4ccc(Oc5ccccc5F)cc4C)c3N)cc2cc1F [Example 4-5-009, [5-amino-1-[4-(2-fluorophenoxy)-2-methylphenyl]pyrazol-4-yl]-[5-fluoro-6-(methoxysulfamoylamino)-1H-indol-2-yl]methanone] |
| 22 | 1.8 | 34 | Cc1cc(Oc2ccccc2F)ccc1-n1ncc(C(=O)c2cc3cc(F)c(NS(=O)(=O)NC4CC4)cc3[nH]2)c1N [Example 4-5-010, [5-amino-1-[4-(2-fluorophenoxy)-2-methylphenyl]pyrazol-4-yl]-[6-(cyclopropylsulfamoylamino)-5-fluoro-1H-indol-2-yl]methanone] |
| 65 | 1.6 | 110 | Cc1cc(Oc2cccc(F)c2F)cc(F)c1-n1ncc(C(=O)c2cc3cc(F)c(NS(=O)(=O)N4CCOCC4)cc3[nH]2)c1N [Example 4-5-011, N-[2-[5-amino-1-[4-(2,3-difluorophenoxy)-2-fluoro-6-methylphenyl]pyrazole-4-carbonyl]-5-fluoro-1H-indol-6-yl]morpholine-4-sulfonamide] |
| 12 | 1 | 78 | Cc1cc(Oc2ccccc2F)ncc1-n1ncc(C(=O)c2cc3cc(F)c(NS(=O)(=O)NC4CCOCC4)cc3[nH]2)c1N [Example 4-5-012, [5-amino-1-[6-(2-fluorophenoxy)-4-methylpyridin-3-yl]pyrazol-4-yl]-[5-fluoro-6-(oxan-4-ylsulfamoylamino)-1H-indol-2-yl]methanone] |
| 13 | 0.92 | 70 | Cc1cc(Oc2ccccc2F)ncc1-n1ncc(C(=O)c2cc3cc(F)c(NS(=O)(=O)NCCO)cc3[nH]2)c1N [Example 4-6-001, {5-amino-1-[6-(2-fluorophenoxy)-4-methylpyridin-3-yl]pyrazol-4-yl}-[5-fluoro-6-(2-hydroxyethylsulfamoylamino)-1H-indol-2-yl]methanone] |
| 4.6 | 0.35 | 16 | Cc1cc(Oc2ccccc2F)ccc1-n1ncc(C(=O)c2cc3cc(F)c(NS(=O)(=O)NCCO)cc3[nH]2)c1N [Example 4-6-002, [5-amino-1-[4-(2-fluorophenoxy)-2-methylphenyl]pyrazol-4-yl]-[5-fluoro-6-(2-hydroxyethylsulfamoylamino)-1H-indol-2-yl]methanone] |
| 22 | 2.3 | 88 | Cc1cc(Oc2ccccc2F)ccc1-n1ncc(C(=O)c2cc3cc(F)c(NS(=O)(=O)NC(C)(C)CO)cc3[nH]2)c1N [Example 4-6-003, [5-amino-1-[4-(2-fluorophenoxy)-2-methylphenyl]pyrazol-4-yl]-[5-fluoro-6-[(1-hydroxy-2-methylpropan-2-yl)sulfamoylamino]-1H-indol-2-yl]methanone] |
| 6.9 | 1.1 | 41 | Cc1cc(Oc2ccccc2F)ccc1-n1ncc(C(=O)c2cc3cc(F)c(NS(=O)(=O)NCC(C)(C)O)cc3[nH]2)c1N [Example 4-6-004, [5-amino-1-[4-(2-fluorophenoxy)-2-methylphenyl]pyrazol-4-yl]-[5-fluoro-6-[(2-hydroxy-2-methylpropyl)sulfamoylamino]-1H-indol-2-yl]methanone] |
| 10 | 2.2 | 41 | Cc1cc(Oc2ccccc2F)ncc1-n1ncc(C(=O)c2cc3cc(F)c(NS(C)(=O)=O)cc3[nH]2)c1N [Example 4-7-001, N-{2-{5-amino-1-[6-(2-fluorophenoxy)-4-methylpyridin-3-yl]pyrazole-4-carbonyl}-5-fluoro-1H-indol-6-yl}methanesulfonamide] |
| 9.1 | 0.43 | 9.5 | Cc1cc(Oc2ccccc2F)ccc1-n1ncc(C(=O)c2cc3cc(F)c(NS(=O)(=O)CC4COCCO4)cc3[nH]2)c1N (stereo not drawn) [Example 4-7-002, N-[2-[5-amino-1-[4-(2-fluorophenoxy)-2-methylphenyl]pyrazole-4-carbonyl]-5-fluoro-1H-indol-6-yl]-1-(1,4-dioxan-2-yl)methanesulfonamide] |
| 7.1 | 1 | 19 | Cc1cc(Oc2ccccc2F)cc(F)c1-n1ncc(C(=O)c2cc3cc(F)c(NS(C)(=O)=O)cc3[nH]2)c1N [Example 4-7-003, N-[2-[5-amino-1-[2-fluoro-4-(2-fluorophenoxy)-6-methylphenyl]pyrazole-4-carbonyl]-5-fluoro-1H-indol-6-yl]methanesulfonamide] |
| 40 | 4.8 | 220 | Cc1cc(Oc2ccccc2F)cc(F)c1-n1ncc(C(=O)c2cc3cc(F)c(NS(=O)(=O)C4CC4)cc3[nH]2)c1N [Example 4-7-004, N-[2-[5-amino-1-[2-fluoro-4-(2-fluorophenoxy)-6-methylphenyl]pyrazole-4-carbonyl]-5-fluoro-1H-indol-6-yl]cyclopropanesulfonamide] |
| 45 | 2.8 | 160 | Cc1cc(Oc2cccc(F)c2F)cc(F)c1-n1ncc(C(=O)c2cc3cc(F)c(NS(C)(=O)=O)cc3[nH]2)c1N [Example 4-7-005, N-[2-[5-amino-1-[4-(2,3-difluorophenoxy)-2-fluoro-6-methylphenyl]pyrazole-4-carbonyl]-5-fluoro-1H-indol-6-yl]methanesulfonamide] |
| 160 | 7 | 380 | Cc1cc(Oc2cccc(F)c2F)cc(F)c1-n1ncc(C(=O)c2cc3cc(F)c(NS(=O)(=O)C4CC4)cc3[nH]2)c1N [Example 4-7-006, N-[2-[5-amino-1-[4-(2,3-difluorophenoxy)-2-fluoro-6-methylphenyl]pyrazole-4-carbonyl]-5-fluoro-1H-indol-6-yl]cyclopropanesulfonamide] |
| 41 | 2 | 190 | Cc1cc(Oc2cc(F)ccc2F)cc(F)c1-n1ncc(C(=O)c2cc3cc(F)c(NS(C)(=O)=O)cc3[nH]2)c1N [Example 4-7-007, N-[2-[5-amino-1-[4-(2,5-difluorophenoxy)-2-fluoro-6-methylphenyl]pyrazole-4-carbonyl]-5-fluoro-1H-indol-6-yl]methanesulfonamide] |
| 140 | 5.9 | 490 | Cc1cc(Oc2cc(F)ccc2F)cc(F)c1-n1ncc(C(=O)c2cc3cc(F)c(NS(=O)(=O)C4CC4)cc3[nH]2)c1N [Example 4-7-008, N-[2-[5-amino-1-[4-(2,5-difluorophenoxy)-2-fluoro-6-methylphenyl]pyrazole-4-carbonyl]-5-fluoro-1H-indol-6-yl]cyclopropanesulfonamide] |
| 34 | 3.7 | 150 | Cc1cc(Oc2ccccc2Cl)cc(F)c1-n1ncc(C(=O)c2cc3cc(F)c(NS(C)(=O)=O)cc3[nH]2)c1N [Example 4-7-009, N-[2-[5-amino-1-[4-(2-chlorophenoxy)-2-fluoro-6-methylphenyl]pyrazole-4-carbonyl]-5-fluoro-1H-indol-6-yl]methanesulfonamide] |
